From patent publication US7951232B2, “Surface coating compositions and methods” (Elevance Renewable Sciences, Inc., priority 2006, dated 2011)

Columns and labels:
[1] = tested on: Escherichia coli 0157:H7, ATCC 43895; assay: Time-Kill Procedure (ASTM), rate of kill; format: cell-based
Description: (§1) The rate of kill for these organisms upon exposure to 9-decenoic acid was determined using the American Society for Testing and Materials (ASTM) procedure entitled “Standard Test Method for the Assessment of Microbiocidal Activity of Test Materials Using a Time-Kill Procedure”, October 1998. This procedure incorporates the recommendations described in the “Manual of Clinical Microbiology,”5th ed., edited by A. B. Balows et al., ASM, Washington, and is directed by the Federal Register, June 1994.
(§2) Stock cultures were transferred into TSB and incubated for 18-24 hours at 37±2° C. A second transfer was made onto TSA plates and were incubated for 18-24 hours at 37±2° C. The plates were removed from incubation and the bacterial growth washed from the agar surface using Butterfield's Phosphate Buffered Dilution Water (PBDW). The bacterial suspension was adjusted to contain approximately 10^8 Colony Forming Units (CFU)/ml with PBDW using spectrophometric methods extant in the laboratory.
(§3) The concentrated 9-decenoic acid was diluted 1:40 in filter sterilized isopropanol to yield a 2.5% stock solution. Subsequent dilutions to the 9-decenoic acid stock solutions were made with sterile Deionized Water (DI) to achieve concentrations of 0.1%, 0.05%, 0.01%, and 0.001%. The pH was determined for each dilution; pH values ranged from 4.4-4.1. Additionally, the 9-decenoic acid stock solution was adjusted to pH 7 with 1 N NaOH and serially diluted with sterile DI to achieve concentrations of 1.0%, 0.75% and 0.5%.
(§4) Compliant with the ASTM procedure cited, for each challenge microorganism a 9.9 ml aliquot of the prepared 9-decenoic acid suspension was added to a sterile tube. A 0.1 ml aliquot of the standardized inoculum was added to the 9-decenoic acid solution representing the start of the test exposure. The inoculated 9-decenoic acid solution was immediately mixed thoroughly. The inoculated suspension was held at room temperature for 0.5, 2, 5, 7 and 10 minute exposure times for tests run at ˜pH 4. The pH 7 tests were held at room temperature for 0.5 and 2 minutes.
(§5) At each exposure sample time, a 1.0 ml aliquot of the inoculated 9-decenoic acid suspension was transferred to 9.0 ml of D/E Neutralizing Broth. Additional ten-fold serial dilutions were made in PBDW and plated in duplicate on TSA. All plates were incubated for 48 hours at 37±2° C. and visually examined for growth. The plates are enumerated, recorded and log kill determined for each time point.
(§6) The following study controls were conducted: culture purity, neutralizer sterility, initial suspension population, test population, neutralization verification and a negative control using isopropanol. Culture purity was verified by performing a streak plate for isolated colonies on the each culture used. All cultures were determined to be pure based on consistent colony morphology typical for the test organism. The neutralizer sterility was confirmed by no growth in an incubated sample.
(§7) The population of the initial and test culture were determined by serial dilution, plating and enumerating after incubation. The initial suspension were determined to be ≧10^4 CFU/ml. The test culture population was used for calculation of the log reduction achieved at each time point.
(§8) Neutralization effectiveness was verified by a filtration test. For each organism, four tubes were prepared with 9 ml D/E Neutralizing Broth and fewer than 100 CFU/ml of the organism. A 1.0 ml aliquot of prepared 9-decenoic acid was added to each tube. Immediately, the entire contents of 2 tubes were filtered through a filtration apparatus and rinsed with sterile diluent. The remaining 2 tubes were held at room temperature for 30 minutes and then the entire contents were filtered using the same procedure. The filters were aseptically transferred to TSA plates and incubated for 48 hours at 37±2° C. and visually examined for growth.
(§9) This control was inoculated, subcultured and incubated as in the test procedure.

[2] = tested on: Candida albicans, ATCC 10231; assay: Time-Kill Procedure (ASTM), rate of kill; format: cell-based
Description: as §1, §2, §3, §4, §5, §6, §7, §8, §9

[3] = 0.01%, pH 4.4, exposure 0.5 minutes
[4] = 0.01%, pH 4.4, exposure 2 minutes
[5] = 0.01%, pH 4.4, exposure 5 minutes
[6] = 0.01%, pH 4.4, exposure 7 minutes
[7] = 0.01%, pH 4.4, exposure 10 minutes
[8] = 0.05%, pH 4.1, exposure 0.5 minutes
[9] = 0.05%, pH 4.1, exposure 2 minutes
[10] = 0.05%, pH 4.1, exposure 5 minutes
[11] = 0.05%, pH 4.1, exposure 7 minutes
[12] = 0.05%, pH 4.1, exposure 10 minutes
[13] = 0.1%, pH 4.1, exposure 0.5 minutes
[14] = 0.1%, pH 4.1, exposure 2 minutes
[15] = 0.1%, pH 4.1, exposure 5 minutes
[16] = 0.1%, pH 4.1, exposure 7 minutes
[17] = 0.1%, pH 4.1, exposure 10 minutes

For `C=CCCCCCCCC(=O)O` [9-decenoic acid], the “Log reduction of organisms after exposure” value (“Log reduction of organisms” below) [1, 3] was 1.3 log, the “Log reduction of organisms” value [1, 4] was 1.6 log and the “Log reduction of organisms” value [1, 5] was 2.2 log. For the same compound, the “Log reduction of organisms” value [1, 6] was 1.8 log, the “Log reduction of organisms” value [1, 7] was 2.7 log and the “Log reduction of organisms” value [1, 8] was >6.2 log. For the same compound, the “Log reduction of organisms” value [1, 9] was >6.2 log, the “Log reduction of organisms” value [1, 10] was >6.2 log and the “Log reduction of organisms” value [1, 11] was >6.2 log. The “Log reduction of organisms” value [1, 12] was >6.2 log, the “Log reduction of organisms” value [1, 13] was >6.2 log and the “Log reduction of organisms” value [1, 14] was >6.2 log. The “Log reduction of organisms” value [1, 15] was >6.2 log, the “Log reduction of organisms” value [1, 16] was >6.2 log and the “Log reduction of organisms” value [1, 17] was >6.2 log. For the same compound, the “Log reduction of organisms” value [2, 3] was 1.0 log, the “Log reduction of organisms” value [2, 4] was 2.9 log and the “Log reduction of organisms” value [2, 5] was >6.7 log. The “Log reduction of organisms” value [2, 6] was >6.7 log, the “Log reduction of organisms” value [2, 7] was >6.7 log and the “Log reduction of organisms” value [2, 8] was >6.7 log. The “Log reduction of organisms” value [2, 9] was >6.7 log, the “Log reduction of organisms” value [2, 10] was >6.7 log and the “Log reduction of organisms” value [2, 11] was >6.7 log. The “Log reduction of organisms” value [2, 12] was >6.7 log, the “Log reduction of organisms” value [2, 13] was >6.7 log and the “Log reduction of organisms” value [2, 14] was >6.7 log. For the same compound, the “Log reduction of organisms” value [2, 15] was >6.7 log, the “Log reduction of organisms” value [2, 16] was >6.7 log and the “Log reduction of organisms” value [2, 17] was >6.7 log.
